Data published in PMC3399817 (PLoS ONE, 2012).

Legend:
HIPK1 = molecular target: T1, HIPK1 (Homo sapiens, UniProt Q86Z02); assay: SelectScreen in vitro kinase IC50; type: biochemical
T1 construct: purchased Ambit KINOMEscan (DiscoverX)
Method: (§1) First, we used Ambit's KINOMEscan™ technology to identify those kinases that are inhibited for substrate binding by the compounds, all assayed at 1 μM. Second, we used Invitrogen's SelectScreen® Biochemical Kinase Profiling Service to determine the in vitro IC50s for the compounds against specific kinases.

HCT-116 (K-RAS^G13D/+) = assay: Cell viability (Syto60); type: cell-based
Method: (§2) All colon cancer cell lines were maintained in DMEM supplemented with penicillin (100 units/mL), streptomycin (100 μg/mL), and 10% fetal bovine serum (FBS). The rectal cancer cell line (Car1) was maintained in DMEM/F12 supplemented with penicillin (100 units/mL)/streptomycin (50 μg/mL), and 5% FBS. […] The target sequences for knockdowns can be found in Table S2. In drug treatment experiments, cells were plated for 24 hours prior to exposure to drug. AZ-628 was obtained from AstraZeneca. CI-1040 was obtained from Pfizer. R406 was synthesized in the Gray laboratory. BAY61-3606 and IKK VII were purchased from EMD Biosciences. BAY derivatives were synthesized for this study.
(§3) Cell cycle analysis was performed via FACS-based propidium iodide quantification, using standard methods. To measure cell viability, cells were grown in 96-well plates in the presence or absence of drug for 72 hours, fixed with 4% paraformaldehyde, and then stained with Syto60 (Invitrogen). Plates were imaged and quantified using the LiCor Odyssey system (LiCor).

[1] = tested on: colorectal cancer cells expressing mutant B-RAF (V600E) (HT-29, RKO); assay: Cell viability (Syto60); type: cell-based; settings: HT-29 and RKO, 72 hours
Method: as §2, §3

DLD-1 (K-RAS^G13D/+) = assay: Cell cycle analysis (propidium iodide FACS); type: cell-based; settings: DLD-1 cells
Method: as §3

[2] = tested on: phospho-MEK1 (Ser217/Ser221) and phospho-ERK1/2 (Thr202/Tyr204, Thr185/Tyr187); assay: Bio-Plex phospho-MEK1 and phospho-ERK1/2; type: cell-based; settings: 45 minute exposure, 1 µM, K-RAS wild-type and mutant cells
Method: The Bio-Plex assay system was used to measure signaling in drug-treated cells. Briefly, cells were incubated in the presence of drug for various amounts of time and then lysed in Bio-Rad cell lysis buffer (Bio-Rad). Protein quantification was performed using BCA assay (Pierce) and 5 µg of protein from each sample was used for Bio-Plex analysis. Phospho-signaling assays were performed using available phospho-signaling assay kits and quantified on a Bio-Plex 200 system (Bio-Rad): p-Iκβα (Ser32/Ser36), p-JNK (Thr183/Tyr185), p-MEK1 (Ser217/Ser221), p-ERK1/2 (Thr202/Tyr204, Thr185/Tyr187), p-p90RSK (Thr359/Ser363), p-p38 (Thr180/Tyr182), p-c-JUN (Ser63), p-ATF2 (Thr71), p-AKT (Ser473), p-S6 (Ser235/Ser236), p-STAT3 (Ser727), p-STAT3 (Tyr705), and p-GSK3α/β (Ser21/Ser9). Bio-Plex assay for total MEK1 was also performed as a loading control.

[3] = tested on: antigen-induced airway inflammation; set-up: method as in PMID 12766258; settings: rats ref 14; cited from earlier work
B cell migration = tested on: B cell migration; set-up: method as in PMID 21123826; settings: mice ref 15; cited from earlier work
CDC2L5 = CDC2L5 (Homo sapiens, UniProt Q14004); settings: CDC2L5, 1 uM
Method: as §1

PKNB(M.tuberculosis) = PKNB(M.tuberculosis) (Mycobacterium tuberculosis, UniProt P9WI81); settings: 1 uM
Method: as §1

MAP4K2 = molecular target: T2, MAP4K2 (Homo sapiens, UniProt Q12851); assay: SelectScreen in vitro kinase IC50; type: biochemical; settings: Fig. S5
T2 construct: purchased Ambit KINOMEscan (DiscoverX)
T2 sequence (Q12851 1-820): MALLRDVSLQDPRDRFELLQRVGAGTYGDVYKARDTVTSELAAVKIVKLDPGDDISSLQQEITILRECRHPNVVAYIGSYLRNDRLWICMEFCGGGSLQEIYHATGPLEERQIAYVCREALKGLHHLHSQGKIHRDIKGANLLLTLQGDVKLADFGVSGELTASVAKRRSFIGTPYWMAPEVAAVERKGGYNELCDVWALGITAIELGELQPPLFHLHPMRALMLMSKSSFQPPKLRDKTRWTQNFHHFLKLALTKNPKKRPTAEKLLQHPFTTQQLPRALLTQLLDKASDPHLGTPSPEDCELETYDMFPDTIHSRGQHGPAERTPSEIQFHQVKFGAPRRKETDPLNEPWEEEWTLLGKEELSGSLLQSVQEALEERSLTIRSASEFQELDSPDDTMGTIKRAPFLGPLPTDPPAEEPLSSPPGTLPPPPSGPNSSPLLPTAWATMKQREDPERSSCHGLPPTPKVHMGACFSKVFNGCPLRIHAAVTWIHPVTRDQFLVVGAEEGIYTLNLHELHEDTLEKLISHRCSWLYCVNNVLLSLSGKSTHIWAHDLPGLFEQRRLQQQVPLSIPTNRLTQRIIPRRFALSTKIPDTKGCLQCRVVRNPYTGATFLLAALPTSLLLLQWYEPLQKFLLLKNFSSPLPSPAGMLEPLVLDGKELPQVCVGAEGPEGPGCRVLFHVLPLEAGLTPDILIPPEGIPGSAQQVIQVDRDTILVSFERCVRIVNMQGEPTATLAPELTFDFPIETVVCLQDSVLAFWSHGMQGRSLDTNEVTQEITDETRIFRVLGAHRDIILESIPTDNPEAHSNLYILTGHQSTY
Method: as §1

[4] = tested on: panel of colorectal cancer cell lines; assay: Cell viability (Syto60) in a panel of colorectal cancer cell lines; type: cell-based; settings: 72 hours, 3 cell lines expressing wild-type K-RAS
Method: as §3
Relative cell viability was normalized to an untreated control for each cell line. Error bars represent SEM for 3 independent experiments. […] (PDF) Click here for additional data file.

Sequence of PKNB(M.tuberculosis) (P9WI81 whole entry): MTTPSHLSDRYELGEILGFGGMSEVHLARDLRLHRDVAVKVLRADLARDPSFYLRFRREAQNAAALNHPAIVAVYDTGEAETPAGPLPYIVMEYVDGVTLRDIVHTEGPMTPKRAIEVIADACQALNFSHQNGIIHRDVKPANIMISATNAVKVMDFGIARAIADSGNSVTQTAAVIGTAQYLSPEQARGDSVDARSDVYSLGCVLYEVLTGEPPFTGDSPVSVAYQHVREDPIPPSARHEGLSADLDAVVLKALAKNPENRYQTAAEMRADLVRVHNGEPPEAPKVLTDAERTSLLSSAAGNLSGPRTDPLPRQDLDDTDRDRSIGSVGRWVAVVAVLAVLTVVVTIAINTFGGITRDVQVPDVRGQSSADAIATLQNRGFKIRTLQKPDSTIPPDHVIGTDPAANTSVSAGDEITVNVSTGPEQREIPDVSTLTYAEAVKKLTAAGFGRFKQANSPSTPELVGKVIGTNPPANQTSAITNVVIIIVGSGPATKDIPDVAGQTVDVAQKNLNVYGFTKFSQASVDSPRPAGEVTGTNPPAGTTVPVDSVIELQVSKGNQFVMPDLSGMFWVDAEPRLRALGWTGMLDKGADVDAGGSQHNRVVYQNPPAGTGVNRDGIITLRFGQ
Sequence of CDC2L5 (Q14004 whole entry): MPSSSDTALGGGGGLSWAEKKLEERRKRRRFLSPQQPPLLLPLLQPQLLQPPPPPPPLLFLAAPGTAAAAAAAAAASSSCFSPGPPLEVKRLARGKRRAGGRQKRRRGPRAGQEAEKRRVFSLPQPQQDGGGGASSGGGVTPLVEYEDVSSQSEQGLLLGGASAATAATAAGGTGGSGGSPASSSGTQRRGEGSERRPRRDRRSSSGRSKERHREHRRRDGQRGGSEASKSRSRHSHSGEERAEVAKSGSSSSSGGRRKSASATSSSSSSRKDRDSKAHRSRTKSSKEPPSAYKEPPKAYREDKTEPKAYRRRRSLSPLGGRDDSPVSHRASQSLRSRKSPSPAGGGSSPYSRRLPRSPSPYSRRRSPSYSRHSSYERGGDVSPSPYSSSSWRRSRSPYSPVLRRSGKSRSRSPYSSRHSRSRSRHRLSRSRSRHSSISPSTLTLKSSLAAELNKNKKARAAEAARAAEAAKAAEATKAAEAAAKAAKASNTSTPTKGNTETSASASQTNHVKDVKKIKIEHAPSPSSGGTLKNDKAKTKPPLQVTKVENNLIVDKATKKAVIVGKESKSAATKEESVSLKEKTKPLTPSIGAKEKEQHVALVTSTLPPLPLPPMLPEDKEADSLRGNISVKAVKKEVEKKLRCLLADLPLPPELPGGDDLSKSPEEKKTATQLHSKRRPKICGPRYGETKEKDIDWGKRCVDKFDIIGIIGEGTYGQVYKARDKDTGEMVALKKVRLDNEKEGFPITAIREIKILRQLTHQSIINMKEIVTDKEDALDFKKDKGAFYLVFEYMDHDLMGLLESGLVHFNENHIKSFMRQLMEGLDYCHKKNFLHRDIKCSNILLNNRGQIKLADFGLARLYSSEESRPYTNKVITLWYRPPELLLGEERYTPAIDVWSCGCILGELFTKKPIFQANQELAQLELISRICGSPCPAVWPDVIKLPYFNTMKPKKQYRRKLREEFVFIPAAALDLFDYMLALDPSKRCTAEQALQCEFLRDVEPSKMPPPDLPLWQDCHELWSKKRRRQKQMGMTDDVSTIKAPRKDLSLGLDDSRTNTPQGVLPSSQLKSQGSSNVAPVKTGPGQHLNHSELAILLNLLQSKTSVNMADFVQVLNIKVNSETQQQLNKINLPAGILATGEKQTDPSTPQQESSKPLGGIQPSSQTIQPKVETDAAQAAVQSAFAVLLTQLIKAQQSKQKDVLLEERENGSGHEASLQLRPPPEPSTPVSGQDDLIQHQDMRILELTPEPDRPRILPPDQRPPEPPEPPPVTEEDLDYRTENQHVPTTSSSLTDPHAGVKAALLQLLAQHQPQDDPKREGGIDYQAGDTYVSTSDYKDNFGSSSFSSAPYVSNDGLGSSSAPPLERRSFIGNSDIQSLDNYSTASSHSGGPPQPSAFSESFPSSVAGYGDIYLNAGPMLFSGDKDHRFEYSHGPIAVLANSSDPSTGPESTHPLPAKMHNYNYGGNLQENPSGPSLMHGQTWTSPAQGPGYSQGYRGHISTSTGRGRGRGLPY
T1 sequence (Q86Z02 whole entry): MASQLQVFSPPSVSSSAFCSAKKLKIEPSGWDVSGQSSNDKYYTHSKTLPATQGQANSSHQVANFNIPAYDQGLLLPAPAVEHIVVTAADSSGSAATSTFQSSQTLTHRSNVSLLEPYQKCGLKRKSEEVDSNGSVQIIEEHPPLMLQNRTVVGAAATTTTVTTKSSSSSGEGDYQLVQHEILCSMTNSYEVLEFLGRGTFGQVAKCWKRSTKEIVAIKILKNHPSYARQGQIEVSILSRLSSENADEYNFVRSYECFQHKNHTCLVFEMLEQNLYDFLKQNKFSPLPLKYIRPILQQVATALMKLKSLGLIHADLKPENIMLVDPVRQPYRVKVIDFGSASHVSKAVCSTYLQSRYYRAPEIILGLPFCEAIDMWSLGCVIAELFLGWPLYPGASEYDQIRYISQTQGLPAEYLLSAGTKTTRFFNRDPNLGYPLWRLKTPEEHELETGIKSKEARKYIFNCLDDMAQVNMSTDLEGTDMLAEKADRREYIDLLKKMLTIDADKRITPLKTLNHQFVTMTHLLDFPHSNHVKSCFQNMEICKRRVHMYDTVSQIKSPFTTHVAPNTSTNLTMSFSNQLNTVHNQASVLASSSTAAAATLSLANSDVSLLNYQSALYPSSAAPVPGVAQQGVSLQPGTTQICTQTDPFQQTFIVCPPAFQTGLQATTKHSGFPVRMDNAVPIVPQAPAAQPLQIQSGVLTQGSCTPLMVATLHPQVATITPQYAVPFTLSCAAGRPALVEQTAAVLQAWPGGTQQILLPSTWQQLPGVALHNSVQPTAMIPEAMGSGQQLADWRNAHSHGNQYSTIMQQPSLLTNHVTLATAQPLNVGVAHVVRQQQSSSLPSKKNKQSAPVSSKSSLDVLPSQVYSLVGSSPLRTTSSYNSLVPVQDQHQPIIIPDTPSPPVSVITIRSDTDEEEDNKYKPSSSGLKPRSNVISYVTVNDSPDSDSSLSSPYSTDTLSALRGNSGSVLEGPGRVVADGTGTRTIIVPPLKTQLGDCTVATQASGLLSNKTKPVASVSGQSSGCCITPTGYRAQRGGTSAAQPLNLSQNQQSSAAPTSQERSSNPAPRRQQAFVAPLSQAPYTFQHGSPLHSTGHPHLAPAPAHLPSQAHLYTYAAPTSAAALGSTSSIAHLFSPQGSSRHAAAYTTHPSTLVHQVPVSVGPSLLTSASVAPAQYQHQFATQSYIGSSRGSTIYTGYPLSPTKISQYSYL

Row | SMILES | IC50 (HIPK1) [µM] | sensitivity of cells expressing mutant K-RAS (cell viability) (HCT-116 (K-RAS^G13D/+); 72 hours, HCT-116 compared to HKe-3, normalized to DMSO) | cooperation with AZ-628 (cell viability) (HCT-116 (K-RAS^G13D/+); HCT-116, 72 hours, 1 µM AZ-628) | cell viability, combination of BAY61-3606 and CI-1040 [1] | sensitivity of cells expressing mutant B-RAF (cell viability) ([1]; single agent) | apoptosis (DLD-1 (K-RAS^G13D/+)) | cell cycle profile (DLD-1 (K-RAS^G13D/+); propidium iodide) | MEK and ERK phosphorylation [2] | antigen-induced airway inflammation [3] | B cell migration (B cell migration) | % binding compared to no inhibitor control (CDC2L5) [%] | % binding compared to no inhibitor control (PKNB(M.tuberculosis)) [%] | in vitro kinase activity of MAP4K2, inhibition (MAP4K2) | cell lines expressing wild-type K-RAS that responded [4]
1 | COc1ccc(-c2cc3nccn3c(Nc3ncccc3C(N)=O)n2)cc1OC.Cl.Cl [BAY61-3606, 2-[7-(3,4-dimethoxyphenyl)-imidazo [1,2-c]pyrimidin-5-ylamino] nicotinamide dihydrochloride, reference compound] | 4.24 | relatively sensitive | did not cooperate | cooperated to produce an enhanced response | sensitive | nor did it induce apoptosis | did not alter the cell cycle profile | unable to do so | suppresses | suppresses |  |  |  | 
2 | COc1ccccc1Nc1nc(-c2ccc(OC)c(OC)c2)cc2nccn12 [BAY derivative 6] |  |  |  |  |  |  |  |  |  |  | 88 | 99 | lost its ability to effectively inhibit the in vitro kinase activity of MAP4K2 | 0/3
